Data set [1] is described as follows: Single-dose [14C]LUM001 oral solution: radioactivity in plasma, blood, urine, feces. Type of data set: in vivo, human. The method, then: This was an open-label, one-period, single-dose study of a [^14C]LUM001 oral solution. Eight healthy male subjects received an oral solution of 5 mg [^14C]LUM001 (containing approximately […] per dose). Blood samples were collected at predose and for 72 hours postdose, urine samples were collected predose and for 168 hours postdose and feces were collected predose and for 216 hours postdose. Plasma, whole blood, urine and fecal samples were analyzed for total radioactivity, and selected fecal samples were analyzed for LUM001 and relevant metabolite concentrations. In addition, metabolic profiles in selected fecal samples were obtained using high performance liquid radio chromatography (HPLRC).

For the next data set, the system named is plasma bile acid. Nature of the data set: Plasma bile acid concentrations in ZDF rats. To be noted: SC-435 1, 10 or 30 mg/kg; LUM002 0.3, 1, 3, 10 or 30 mg/kg; oral gavage twice a day, end of second week, n=4. Type of data set: in vivo. The method, then: Male Zucker diabetic fatty rats (ZDF/GmiCrl-fa/fa) were purchased from Charles River (Raleigh, N.C.) and housed under controlled conditions (12:12 light-dark cycle, 24° C. and 50% relative humidity) with free access to rodent food (Purina 5008, Harlan Teklad, Indianapolis, Ind.). All rats arrived at seven weeks of age (±3 days). After a one-week acclimation period, rats were anesthetized with isoflurane (Abbott Laboratories, IL) and tail-vein blood samples were collected at 9 am without fasting. Blood glucose levels were measured using a glucometer (Bayer, Leverkusen, Germany). In order to ensure balanced treatment groups, ZDF rats were assigned to six treatment groups based upon baseline glucose: vehicle (0.5% HPMC, 0.1% Tween80) and five doses of 264W94 (0.001, 0.01, 0.1, 1, 10 mg/kg). All treatments were given via oral gavage twice a day and animals were followed for two weeks with blood samples collected from tail vein at the end of each week at 9 am without fasting. Fecal samples were collected for 24 hours during the second week of treatment.
Non-esterified fatty acids (NEFA), bile acids, and bile acids in fecal extraction were measured using the Olympus AU640 clinical chemistry analyzer (Beckman Coulter, Irving, Tex.).
Male ZDF rats (n=4) were administered vehicle, SC-435 (1, 10 or 30 mg/kg) or LUM002 (0.3, 1, 3, 10 or 30 mg/kg) by oral gavage twice a day for 2 weeks. Plasma bile acid levels were determined at the end of the second week. […] Data are expressed as mean values±SEM.

Setting [2] is: 5 mg [14C]LUM001 oral solution, eight healthy male subjects.
[3] abbreviates: 5 mg [14C]LUM001 oral solution, analyte in feces.

`CCCCC1(CCCC)CS(=O)(=O)c2ccc(N(C)C)cc2[C@@H](c2ccc(OCc3ccc(C[N+]45CCN(CC4)CC5)cc3)cc2)[C@H]1O` [LUM001]: in data set [1] (5 mg [14C]LUM001 oral solution), the “Fecal radioactivity associated with unchanged free LUM001” value came to 94%. Besides, the “Radioactive dose detected in plasma, whole blood or urine” value in data set [1] (setting [2]) is given as “Less than 1%”. The “Total radioactive dose detected in feces” value in data set [1] (setting [2]) turned out to be 72%. Moreover, in data set [1] (setting [3]), the “Mean Percent of Dose in Feces” value was found to be 65.0%. Moreover, the “Percent of Fecal Radioactivity” value in data set [1] (setting [3]) was 94.4%. Besides, the “Cumulative % of Total Dose” value came to 72.466% in data set [1] (Feces incl. Toilet Paper (cumulative recovery in toilet paper from first five fecal samples)); 30.376% in data set [1] (Feces, 0-24 hr); 49.878% in data set [1] (Feces, 24-48 hr); 67.630% in data set [1] (Feces, 48-72 hr); 69.653% in data set [1] (Feces, 72-96 hr); 71.606% in data set [1] (Feces, 96-120 hr). The “Cumulative % of Total Dose” value in data set [1] (Feces, 120-144 hr) was 71.771%; in data set [1] (Feces, 144-168 hr), 71.815%; in data set [1] (Feces, 168-192 hr), 71.885%; in data set [1] (Feces, 192-216 hr) it was 71.885%; in data set [1] (Total (Urine and Feces)), 72.532%; in data set [1] (Urine, 0-2 hr), 0.005%. Moreover, the “Cumulative % of Total Dose” value in data set [1] (Urine, 2-4 hr) is 0.012%; in data set [1] (Urine, 4-8 hr) it was 0.028%; in data set [1] (Urine, 8-12 hr) it was 0.041%; in data set [1] (Urine, 12-24 hr), 0.058%; in data set [1] (Urine, 24-48 hr), 0.057%; in data set [1] (Urine, 48-72 hr), 0.062%. In addition, the “Cumulative % of Total Dose” value in data set [1] (Urine, 72-96 hr) is reported as 0.063%; in data set [1] (Urine, 96-120 hr) it was 0.063%; in data set [1] (Urine, 120-144 hr), 0.064%; in data set [1] (Urine, 144-168 hr), 0.066%. For the same compound, the “Radioactive Concentration” value in data set [1] (Plasma, 0.5 hr) is “BLQ”; in data set [1] (Plasma, 1 hr), “BLQ”; in data set [1] (Plasma, 1.5 hr), “BLQ”; in data set [1] (Plasma, 2 hr), “BLQ”; in data set [1] (Plasma, 2.5 hr), “BLQ”; in data set [1] (Plasma, 3 hr) it was “BLQ”. Further, the “Radioactive Concentration” value is given as “BLQ” in data set [1] (Plasma, 4 hr); “BLQ” in data set [1] (Plasma, 6 hr); “BLQ” in data set [1] (Plasma, 8 hr); “BLQ” in data set [1] (Plasma, 12 hr); 0.000 ng equivalents/mL in data set [1] (Plasma, 16 hr); “BLQ” in data set [1] (Plasma, 24 hr). Moreover, the “Radioactive Concentration” value in data set [1] (Plasma, 36 hr) is recorded as 0.000 ng equivalents/mL; in data set [1] (Plasma, 48 hr) it was “BLQ”; in data set [1] (Plasma, 60 hr), “BLQ”; in data set [1] (Plasma, 72 hr), “BLQ”; in data set [1] (Whole Blood, 1 hr), 0.000 ng equivalents/g; in data set [1] (Whole Blood, 4 hr) it was 0.000 ng equivalents/g. In addition, the “Radioactive Concentration” value in data set [1] (Whole Blood, −0.5 hr) amounted to 0.000 ng equivalents/g.
For the compound `CCCC[C@]1(CC)CS(=O)(=O)c2ccc(N(C)C)cc2[C@@H](c2cccc(NC(=O)N[C@@H]3O[C@H](COS(=O)(=O)[O-])[C@@H](O)[C@H](OCc4ccccc4)[C@H]3O)c2)[C@H]1O.CCO.O.[K+]` [LUM002, potassium((2R,3R,4S,5R,6R)-4-benzyloxy-6-{3-[3-((3S,4R,5R)-3-butyl-7-dimethylamino-3-ethyl-4-hydroxy-1,1-dioxo-2,3,4,5-tetrahydro-1H-benzo[b]thiepin-5-yl)-phenyl]-ureido}-3,5-dihydroxy-tetrahydro-pyran-2-ylmethyl)sulphate ethanolate, hydrate], in the data set on plasma bile acid, the “Plasma bile acid levels” value is reported as “decreased for all doses”.

The values above are taken from patent US20140271734A1, “BILE ACID RECYCLING INHIBITORS FOR TREATMENT OF BARRETT'S ESOPHAGUS AND GASTROESOPHAGEAL REFLUX DISEASE” (LUMENA PHARMACEUTICALS, INC., priority 2013, published 2014).
